From US11078259B2, “Methods and compositions for promoting thermogenic potential” (Joslin Diabetes Center, Inc., priority 2015, dated 2021)

Tested on: UCP1 and DIO2 expression in differentiated hBA
Test: Q-RT-PCR for UCP1 and DIO2 in differentiated hBA treated with norepinephrine or browning agents
Format: cell-based, human
Conditions: hBAs from subject 2; 1 uM norepinephrine (NE) for 4 h
Description: FIG. 4A depicts total cellular respiration rate (OCR) measured using the Seahorse extracellular flux analyzer in differentiated hWA and hBA from Sub1 and Sub2 that were treated for 4 h with 10 uM forskolin (Fsk). The same number of cells was used in the assay. Data are presented as mean±s.e.m. (n=10; two-tailed Student's t-test; *P<0.05, **P<0.01, ***P<0.001). A representative experiment from a total of three independent studies is shown. FIG. 4B depicts Q-RT-PCR analysis for UCP1 and DIO2 expression in differentiated hWA and hBA from Sub1 and Sub2 that were treated for 48 h with 3.3 nM BMP7, 3.3 nM BMP8 and 50 nM FGF21. Data are presented as a fold change compared to vehicle treatment of hWA in each subject (mean±s.e.m., n=3; two-tailed Student's t-test; *P<0.05, **P<0.01, ***P<0.001). A representative experiment from a total of three independent studies is shown. […]
RNA extraction, cDNA synthesis, and quantitative real-time PCR (Q-RT-PCR) were performed as described before (Cypess, A. M., et al. Nat Med 19, 635-639, 2013; Tseng, Y. H., et al. Nature 454, 1000-1004, 2008). Q-RT-PCR assays were run in duplicates and quantified in the ABI Prism 7900 sequence-detection system using SYBR (Roche Applied Science, Indianapolis, Ind.). Relative mRNA expression was determined by the delta-Ct method and the values were normalized to the expression of 18S ribosomal RNA (18s).

NC[C@H](O)c1ccc(O)c(O)c1 [norepinephrine]
levels of UCP1 and DIO2: increasing the levels of UCP1 and DIO2
